Like-named read-outs stand apart in the source and are kept apart here.
What was measured:
[1] = test system: proteins in CD-1 mouse plasma; assay: Plasma protein binding rate (equilibrium dialysis); type: in vitro ADME, CD-1 mouse (mus musculus)
Protocol: Objectives of Experiment: to determine the binding rate of test compound to proteins in human and CD-1 mouse plasma
Experimental operation: 796 μL of blank plasma was taken from human and CD-1 mouse, and 4 μL of test compound working solution (400 μM) or warfarin working solution (400 μM) was added to make the final concentrations of both test compound and warfarin in the plasma sample 2 μM. The sample was mixed thoroughly. The final concentration of DMSO in the organic phase was 0.5%; 50 μt of plasma samples of test compound and warfarin was pipetted into the sample receiving plate (in triplicate), and immediately the corresponding volume of blank plasma or buffer was added to make the final volume of each sample 100 μL and the volume ratio of plasma:dialysis buffer 1:1. Then 400 μL of stop solution is added to these samples. These samples would be used as TO samples for determination of recovery and stability. […] All samples were analyzed by LC/MS/MS after protein precipitation, and the protein binding rate and recovery rate was calculated with the formula: % Unbound (unbound rate)=100*FC/TC, % Bound (bound rate)=100-% Unbound, % Recovery (recovery rate)=100*(FC+TC)/T0.

HBV = HBV in vitro test: quantitative qPCR of HBV DNA in HepG2.2.15 cells; type: cell-based
Protocol: The HBV DNA content in HepG2.2.15 cells was detected by Real-time quantitative qPCR, and EC50 value of compounds was used as an indicator to evaluate inhibitory effect of compounds on HBV.
2.1 Cell Line: HepG2.2.15 Cells
3.1 HepG2.2.15 cells (4×10^4 cells/well) were bedded to a 96-well plate and cultured overnight at 37° C., 5% CO2.
3.2 On the day 2, the compound was diluted to a total of 8 concentrations, with a 3-fold gradient dilution. Different concentrations of compounds were added to the culture wells in duplicate. The final concentration of DMSO in the culture medium was 1%. 1 μM GLS4 was used as a 100% inhibition control; 1% DMSO was used as a 0% inhibition control.
3.3 On the day 5, the culture medium was replaced with fresh culture medium containing the compound.
3.4 On the day 8, the culture medium in the culture wells was collected, and DNA was extracted with the high-throughput DNA purification kit (Qiagen-51162). Refer product manual for specific steps.
3.6 15 μL of reaction mixture was added to each well of a 96-well PCR plate, and then 10 μL of sample DNA or HBV DNA standard was added to each well.
3.7 The reaction settings for PCR are: heating at 95° C. for 10 minutes; then denaturation at 95° C. for 15 seconds, and extension at 60° C. for 1 minute, a total of 40 cycles. […]

[2] = Pharmacokinetics of oral administration and intravenous injection in Balb/c mice; type: in vivo; settings: female, mouse, plasma
Protocol: 1. Study on the Pharmacokinetics of Oral Administration and Intravenous Injection of the Compound Represented by Formula (I) in Balb/c Mice The compound represented by formula (I) was mixed with 5% DMSO/55% polyethylene glycol 400/40% aqueous solution, vortexed and sonicated to obtain an approximately clear solution of 1 mg/mL, which was then filtered by a microporous membrane for later use. Female Balb/c mice aged 7 to 10 weeks were selected and the candidate compound solution was administered intravenously at a dose of 1 mg/kg. The compound represented by formula (I) was mixed with 10% solutol (polyethylene glycol-15 hydroxystearate) aqueous solution, vortexed and sonicated to obtain an approximately clear solution of 1 mg/mL, which was then filtered through a microporous membrane for later use. Female Balb/c mice aged 7 to 10 weeks were selected and the candidate compound solution was orally administered at a dose of 10 mg/kg. Whole blood was collected at a certain period of time to prepare plasma, drug concentration was analyzed by LC-MS/MS method, and pharmacokinetic parameters was calculated by Phoenix WinNonlin software (Pharsight, USA). Note: T1/2 means half-life; Vdss means apparent volume of distribution; Cl means clearance rate; AUC0_last means area below the drug-time curve; Tmax means peak time; Cmax means peak concentration; F % means oral bioavailability; iv means intravenous injection; PO means oral administration; mpk means mg/kg.

Cc1cc2n(c1)S(=O)(=O)c1ccc(C(=O)NCC[C@H]3COCCO3)cc1NC2=O [compound represented by formula (I)]
binding rate to plasma proteins (conclusion in words) [1]: lower binding rate | Binding rate of plasma protein ([1]; 2 μM): 94% | inhibitory effect on HBV (conclusion in words) (HBV): significant inhibitory effect | EC50 (HBV; Hepatitis B virus, HBV DNA by qPCR, read-out: 50% inhibitory concentration (EC50) value of HBV): 8.16 nM | clearance ([2]; 1 mg/kg, iv 1 mpk): 8.5 mL/min/kg | half-life ([2]; 1 mg/kg, iv 1 mpk): 72 min | AUC(0-t) ([2]; 1 mg/kg, iv 1 mpk, read-out: AUC0-last): 4.67 µM·h | Vd ([2]; 1 mg/kg, iv 1 mpk, read-out: Vdss): 0.45 L/kg | Cmax ([2]; 10 mg/kg, po 10 mpk): 19.9 µM | Tmax ([2]; 10 mg/kg, po 10 mpk): 30 min | bioavailability ([2]; 10 mg/kg, po 10 mpk): 70% | AUC(0-t) ([2]; 10 mg/kg, po 10 mpk, read-out: AUC0-24h): 32.5 µM·h

— patent US11952388B2, “Crystal form of tri-cycle compound and application thereof” (FUJIAN AKEYLINK BIOTECHNOLOGY CO., LTD., priority 2018, dated 2024)
